The nature of the data set: in vitro. The note with it: human, hela cells, % viability.

Usually viability stands for a read-out of living cells in per cent, often relative to untreated cells.

On to `O=C(CN1C(=O)c2ccncc2C1=O)Nc1ccccn1` [CBK288624], for which the viability at 28.5 h, 10 µM stood at 89.9%.
Consider `CC(C)OC(=O)Cc1nc(CN2CCOC(c3ccc(F)cc3)C2)cs1` (stereo not shown) [CBK305439], for which the viability at 28.5 h, 10 µM was determined as 119%.
Same read-out and setting: next, `CSc1nsc(SCC(=O)OC2CC3CCC2(C)C3(C)C)n1` (stereo not shown) [CBK268941]: 92.5%; `COc1cc(/C=C2\C(=O)NN(c3ccccc3)C2=O)ccc1OCCOc1cc(C)ccc1C` [CBK263947]: 80.5%.
With `CCc1ccc(CNC(=O)Cn2nnc(-c3ccc(CNCC4CC4)cc3)n2)cc1` [CBK161032C], the viability at 28.5 h, 10 µM is 109%.
Still for that read-out and setting: under `Cc1ccc(CC2CCCN2CC(=O)NCc2ccccn2)cc1` (stereo not shown) [CBK304070] stands 96.6%.
Regarding `Cc1ccc(S(=O)(=O)NCC(c2ccccc2)N2CCN(CCC#N)CC2)cc1` (stereo not shown) [CBK262865], the viability at 28.5 h, 10 µM was 97.4%.
Still for that read-out and setting: next, `CN(C(=O)CCc1nc2sc3c(c2c(=O)[nH]1)CCCC3)C1CCCCC1` [CBK306075]: 88.2%; `COc1ccc(CCN(Cc2ccc(Cl)c(Cl)c2)C(=O)Nc2cccnc2)cc1OC` [CBK158797]: 96.1%; `CCCN1CCN(S(=O)(=O)c2ccc(C)cc2)CC1` [CBK270326]: 90%.
On the same count and under the same terms, under `Cc1nnc2sc(-c3cccc4ccccc34)nn12` [CBK269185] stands 39.8%.
As for `CC(C)C(=O)Nc1ccc2c(-c3ccccc3)ccnc2n1` [CBK073671], the viability at 28.5 h, 10 µM worked out at 101%.
Take `O=C(COc1ccccc1)N/N=C/c1ccc[nH]1` [CBK261281]: the viability at 28.5 h, 10 µM was found to be 104%.
The same measure, in the same setting: under `Cc1nc(-c2ccccc2)sc1CNC(=O)c1ccc([N+](=O)[O-])o1` [CBK092352] stands 54.8%.
`CSc1nnc(CC2CCN(C(=O)c3cc(C)c(C)cc3C)CC2)n1C` [CBK307467]: the viability at 28.5 h, 10 µM was 99%.
On the same count and under the same terms, under `CS(=O)(=O)N1CC2(CCN(CCCCC3NC(=O)NC3=O)CC2)c2ccccc21` (stereo not shown) [CBK126684] stands 97.1%.
Regarding `COc1ccc(OCCN2CCC3(CC2)CN(S(C)(=O)=O)c2ccccc23)cc1` [CBK126681], the viability at 28.5 h, 10 µM is 95.5%.
Consider `Cc1ccc(-n2nnc(C(=O)N3CCCCC3C(=O)O)c2C)cc1` (stereo not shown) [CBK304109], for which the viability at 28.5 h, 10 µM is 87.7%.
With `O=C1N=C2C=CC=CN2C(=O)C1Cc1ccccc1` (stereo not shown) [CBK287874], the viability at 28.5 h, 10 µM was 110%.
With `CNC(=O)c1c(NC(=O)c2nc(SCc3ccccc3)ncc2Cl)sc2c1CCCC2` [CBK269087], the viability at 28.5 h, 10 µM amounted to 93.9%.
As for `COc1cc2c(cc1OC)CN(Cc1csc(C)n1)CC2` [CBK126443], the viability at 28.5 h, 10 µM was 93.4%.
On the same count and under the same terms, next, `NC1CCN(c2nccnc2OCCOc2cccnc2)CC1` [CBK003889F]: 82.3%; `Cn1cncc1CN(CCc1ccccc1)Cc1ccncc1` [CBK282992]: 87.4%; `C#CCn1c(=O)n(C)n(C)c1=O` [CBK023151]: 89.4%.
Same read-out and setting: under `O=C1c2ccccc2C(=O)N1CC1c2ccccc2CCN1S(=O)(=O)c1cccc2nsnc12` (stereo not shown) [CBK261133] stands 108%; under `CCc1nnc(N/N=C/c2ccc(OCc3ccc(F)cc3Cl)c(OC)c2)n1N` [CBK278173C], 87.1%.
For the molecule `Cc1ccc(Cn2nc(C(=O)Nc3ccccn3)c3ccccc32)cc1` [CBK047839], the viability at 28.5 h, 10 µM (bulk resorufin, single well) is 105%.
Regarding `NC(=O)CCN1CCc2ccccc2C1` [CBK138325], the viability at 28.5 h, 10 µM turned out to be 88.3%.
As for `O=C(Nn1cnnc1)c1ccccc1F` [CBK027603], the viability at 28.5 h, 10 µM turned out to be 106%.
On the same count and under the same terms, under `Cc1cc(C2CCCN2C(=O)c2ccc(C(F)(F)F)nc2)on1` (stereo not shown) [CBK305761] stands 88.6%.
Still for that read-out and setting: next, `O=C(O)CCc1nn2c3ccccc3n(CCN3CCCCC3)c2nc1=O` [CBK267519]: 97.5%.
Regarding `CCN(CC)S(=O)(=O)c1ccc(N/C=C2/C(=O)NC(=O)N(c3ccccc3)C2=O)cc1` [CBK263372], the viability at 28.5 h, 10 µM (bulk resorufin, single well) worked out at 89.9%.
On to `Cc1ccc(NC(=S)NC(=O)Cc2ccccc2)c(O)c1` [CBK264337], for which the viability at 28.5 h, 10 µM was 106%.
In the case of `COC(=O)c1cc(S(=O)(=O)N2c3ccccc3CC2C)cn1C` (stereo not shown) [CBK304384], the viability at 28.5 h, 10 µM came to 81.4%.
On the same count and under the same terms, under `COc1ccc(S(=O)(=O)n2ccn(C(c3ccccc3)c3ccccc3)c2=O)cc1OC` [CBK106621] stands 89.1%.
The same measure, in the same setting: under `CN(Cc1cccn1C)C(=O)c1cc(-c2cnn(C)c2)[nH]n1` [CBK283325] stands 103%; under `Cc1ccc(S(=O)(=O)Nc2nc(C)c(C(=O)O)s2)cc1[N+](=O)[O-]` [CBK045565], 91.3%; under `COc1ccccc1OCCn1c(=N)n(CC(N)=O)c2ccccc21` [CBK268822C], 88.6%.
The same measure, in the same setting: next, `Cc1cc(OC(C)C(=O)N(Cc2cccs2)C2CCS(=O)(=O)C2)cc(C)c1Cl` (stereo not shown) [CBK293962]: 84.3%; `CCNc1nc(-c2ccsc2)cn2ccnc12` [CBK037375]: 87.9%.
Consider `Cn1ccnc1C1(O)CC2CCC(C1)N2C(=O)c1ccc(Cl)cc1` (stereo not shown) [CBK284087], for which the viability at 28.5 h, 10 µM was 94.2%.
Still for that read-out and setting: under `CC(C)c1nccn1-c1ccc(NC(=O)Cn2ccnc2)cc1` [CBK281381] stands 88.9%; under `CCCN1CCC(CNC(=O)c2cc3c(OC)cccc3n2C)CC1` [CBK283255], 90.1%; under `CC(CC(=O)O)CC(=O)N1CCCC1c1nc(-c2ccc(F)cc2)c2ccccn12` (stereo not shown) [CBK046626], 99.4%.
Turning to `CC1CCN(C(=O)COC(=O)c2cnc(-c3ccncc3)s2)CC1` [CBK306255], the viability at 28.5 h, 10 µM turned out to be 94.6%.
The same measure, in the same setting: next, `CCCc1[nH]nc(O)c1Cc1cc(C(F)(F)F)ccc1Cl` [CBK075032]: 96.9%; `O=C(Nc1ncccc1O)c1c(O)c2ccccc2n(Cc2ccccc2)c1=O` [CBK291211]: 103%.
Consider `O=C(NCc1ccccc1)c1ccno1` [CBK200197], for which the viability at 28.5 h, 10 µM was 86.9%.
Still for that read-out and setting: next, `O=C(Nc1cc(N2CCNCC2)c2occc2c1)c1cccc(C(F)(F)F)c1` [CBK061762C]: 86.5%; `C/C(=N\NC(=O)CNC(=O)c1ccc(Br)cc1)c1ccccc1` [CBK262020]: 103%; `CCCN(C(=O)C1CC1)c1nc2c(s1)CCc1c-2cnn1C` [CBK281930]: 88.8%.
On the same count and under the same terms, under `CN(C)CCN1C(=O)C(O)=C(C(=O)c2ccc(S(=O)(=O)N3CCOCC3)cc2)C1c1ccccc1` (stereo not shown) [CBK264668] stands 100%.
Same read-out and setting: next, `Cc1c(C(=O)NC(=S)Nc2ccc(O)c(-c3nc4ccccc4s3)c2)oc2ccccc12` [CBK264223]: 93.2%; `CN(C)CCN(C)C(=O)c1ccc(-c2cc3ccccc3o2)nc1NCc1cccnc1` [CBK076160]: 90.8%.
Regarding `Cc1nonc1CC(=O)NC1(c2ccc(F)cc2)CCCC1` [CBK283613], the viability at 28.5 h, 10 µM was 93.2%.
With `CCOC(=O)CC1=C(C(=O)OCC)C(c2ccccc2C(F)(F)F)C(C#N)=C(N)O1` (stereo not shown) [CBK262710], the viability at 28.5 h, 10 µM was 105%.
For the molecule `CN(C)CCN(C)c1nc(-c2cc(C(F)(F)F)cc(C(F)(F)F)c2)cn2ccnc12` [CBK037971], the viability at 28.5 h, 10 µM was 104%.
As for `Cc1nn(C)c(C)c1OCC(=O)Nc1nc2c(cc1C#N)CCC2` [CBK306371], the viability at 28.5 h, 10 µM came out at 81%.

Source of the values: paper PMC12040169 (PLOS Biology, 2025).
